Our source for the Ki values is US9024044B2, “Heteroarylcarboxylic acid ester derivative” (Ajinomoto Co., Inc., priority 2012, dated 2015).

For assay [1], the target named is human trypsin (Homo sapiens, UniProt P07477). As to the kind of experiment: Measurement of trypsin inhibitory activity. Particulars: substrate Boc-Phe-Ser-Arg-AMC, Tris-HCl pH 8.0, Dixon plot. Type of assay: biochemical. The method, then: Measurement of Trypsin Inhibitory Activity
Using a 96 well plate (#3915, Costar), a test compound (25 μL) was mixed with 20 μM fluorescence enzyme substrate (Boc-Phe-Ser-Arg-AMC, 50 μL) mixed with 200 mM Tris-HCl buffer (pH 8.0), and human trypsin (Sigma, 25 μL) was added. Using a fluorescence plate reader fmax (Molecular Devices, Inc.), the reaction rate was measured from the time-course changes at excitation wavelength 355 nm and fluorescence wavelength 460 nm. The Ki value was calculated from the concentration of the test compound, reciprocal of reaction rate, and Km value of the enzyme substrate, and by using Dixon plot.

For assay [2], the target named is recombinant human enteropeptidase (Homo sapiens (Human), UniProt P98073). As to the kind of experiment: Measurement of enteropeptidase inhibitory activity. The assay is classed as biochemical. Particulars: substrate Gly-Asp-Asp-Asp-Asp-Lys-β-Naphtylamide, Tris-HCl pH 8.0, Dixon plot. Here is the method: Measurement of Enteropeptidase Inhibitory Activity
Sequence of recombinant human enteropeptidase (P98073 whole entry): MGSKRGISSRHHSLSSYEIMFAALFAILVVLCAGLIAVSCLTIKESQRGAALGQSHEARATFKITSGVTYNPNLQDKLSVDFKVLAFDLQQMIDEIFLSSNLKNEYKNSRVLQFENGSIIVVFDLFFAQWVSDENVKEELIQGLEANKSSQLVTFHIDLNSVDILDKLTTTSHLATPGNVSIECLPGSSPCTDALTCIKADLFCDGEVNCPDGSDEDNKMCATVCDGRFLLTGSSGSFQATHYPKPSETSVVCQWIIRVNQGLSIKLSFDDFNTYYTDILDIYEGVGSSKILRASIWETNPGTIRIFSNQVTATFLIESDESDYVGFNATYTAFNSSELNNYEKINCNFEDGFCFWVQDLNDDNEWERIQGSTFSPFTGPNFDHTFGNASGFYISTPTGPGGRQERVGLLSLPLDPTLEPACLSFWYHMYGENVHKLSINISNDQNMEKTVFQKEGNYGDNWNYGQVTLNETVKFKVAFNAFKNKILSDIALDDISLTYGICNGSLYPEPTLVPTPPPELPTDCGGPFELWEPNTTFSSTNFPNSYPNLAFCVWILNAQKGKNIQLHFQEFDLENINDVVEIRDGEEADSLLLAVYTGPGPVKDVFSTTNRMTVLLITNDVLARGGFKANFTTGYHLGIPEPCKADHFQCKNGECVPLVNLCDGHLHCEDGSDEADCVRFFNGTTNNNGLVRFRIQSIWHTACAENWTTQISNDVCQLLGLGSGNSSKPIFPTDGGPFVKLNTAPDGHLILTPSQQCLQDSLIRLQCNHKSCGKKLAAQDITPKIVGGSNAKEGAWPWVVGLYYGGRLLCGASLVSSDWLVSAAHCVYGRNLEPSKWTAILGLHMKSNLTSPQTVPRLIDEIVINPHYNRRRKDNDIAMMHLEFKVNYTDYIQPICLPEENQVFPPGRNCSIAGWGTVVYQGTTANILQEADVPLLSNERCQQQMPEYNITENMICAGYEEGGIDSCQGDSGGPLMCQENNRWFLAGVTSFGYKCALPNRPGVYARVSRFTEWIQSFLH
Using a 96 well plate (#3915, Costar), a test compound (25 μL), 400 mM Tris-HCl buffer (pH 8.0, 25 μL) and 0.5 mg/mL fluorescence enzyme substrate (Gly-Asp-Asp-Asp-Asp-Lys-β-Naphtylamide, 25 μL) were mixed, and recombinant human enteropeptidase (R&D Systems, Inc., 25 μL) was added. Using a fluorescence plate reader fmax (Molecular Devices, Inc.), the reaction rate was measured from the time-course changes at excitation wavelength 320 nm and fluorescence wavelength 405 nm. The Ki value was calculated from the concentration of the test compound, reciprocal of reaction rate, and Km value of the enzyme substrate, and by using Dixon plot.

Counter-ions that a name gives are not always drawn.

With `N=C(N)c1ccc(OC(=O)c2ccc(CC3(C(=O)N[C@@H](CC(=O)O)C(=O)O)CCC3)s2)c(F)c1` [Compound 1, N-[1{5-(4-amidino-2-fluorophenoxycarbonyl)thiophen-2-ylmethyl}-cyclobutylcarbonyl]-1-aspartic acid trifluoroacetic acid salt], the Ki in assay [1] was 0.61 nM; in assay [2], 0.14 nM.

As for `N=C(N)c1ccc(OC(=O)c2ccc(CC3(C(=O)N[C@@H](CC(=O)O)C(=O)O)CCCC3)s2)c(F)c1` [Compound 2, N-{1-[5-(4-amidino-2-fluorophenoxycarbonyl)thiophen-2-ylmethyl]-2-cyclopentylcarbonyl}-1-aspartic acid trifluoroacetic acid salt], the inhibitory constant (Ki) in assay [1] was 4.1 nM; in assay [2], 0.73 nM.

Take `CC(C)(Cc1ccc(C(=O)Oc2ccc(C(=N)N)cc2F)s1)C(=O)N[C@@H](CO)C(=O)O` [Compound 4]: the figures for the Ki in assay [1] and in assay [2] were 0.75 nM and 0.46 nM, respectively.

With `C=CCN(CC(=O)O)C(=O)C(C)(C)Cc1ccc(C(=O)Oc2ccc(C(=N)N)cc2F)s1` [Compound 5], the Ki in assay [1] is 0.5 nM; in assay [2], 0.24 nM.

`CC(C)(Cc1ccc(C(=O)Oc2ccc(C(=N)N)cc2F)s1)C(=O)NC(C)(C)C(=O)O` [Compound 6]: the Ki in assay [1] came out at 0.95 nM; in assay [2], 0.69 nM.

Regarding `CN(CC(=O)O)C(=O)C(C)(C)Cc1ccc(C(=O)Oc2ccc(C(=N)N)cc2F)s1` [Compound 7], the results for the Ki in assay [1] and in assay [2] were 1.33 nM and 0.41 nM, respectively.

For the molecule `CC(C)(Cc1ccc(C(=O)Oc2ccc(C(=N)N)cc2F)s1)C(=O)N1CCC[C@H]1C(=O)O` [Compound 8], the Ki in assay [1] is 1.69 nM; in assay [2], 0.87 nM.

For `CC(C)[C@H](NC(=O)C(C)(C)Cc1ccc(C(=O)Oc2ccc(C(=N)N)cc2F)s1)C(=O)O` [Compound 9, N-{3-[5-(4-amidino-2-fluoro-phenoxycarbonyl)thiophen-2-yl]-2,2-dimethylpropionyl}-1-valine hydrochloride], the Ki in assay [1] stood at 2.02 nM; in assay [2], 0.79 nM.

Turning to `CCC(CC)(Cc1ccc(C(=O)Oc2ccc(C(=N)N)cc2F)s1)C(=O)N[C@@H](CO)C(=O)O` [Compound 11, N-{3-[5-(4-amidino-2-fluoro-phenoxycarbonyl)thiophen-2-yl]-2,2-diethylpropionyl}-L-serine hydrochloride], the Ki in assay [1] stood at 1.87 nM; in assay [2], 0.41 nM.

As to `CCC(CC)(Cc1ccc(C(=O)Oc2ccc(C(=N)N)cc2F)s1)C(=O)N[C@H](CO)C(=O)O` [Compound 12], the figures for the Ki in assay [1] and in assay [2] were 1.78 nM and 0.94 nM, respectively.

For the molecule `CCC(CC)(Cc1ccc(C(=O)Oc2ccc(C(=N)N)cc2F)s1)C(=O)NCCC(=O)O` [Compound 14], the Ki in assay [1] is 2.5 nM; in assay [2] it was 0.99 nM.

`CCC(CC)(Cc1ccc(C(=O)Oc2ccc(C(=N)N)cc2F)s1)C(=O)N[C@H](C(=O)O)C(C)O` (some centres unmarked) [Compound 15]: the Ki in assay [1] came out at 1.74 nM; in assay [2], 0.84 nM.

Take `CCC(CC)(Cc1ccc(C(=O)Oc2ccc(C(=N)N)cc2F)s1)C(=O)N1CCC[C@H]1C(=O)O` [Compound 17]: the Ki was found to be 6.38 nM in assay [1] and 1.69 nM in assay [2].

On to `CCC(CC)(Cc1ccc(C(=O)Oc2ccc(C(=N)N)cc2F)s1)C(=O)O` [Compound 18, 3-[5-(4-amidino-2-fluorophenoxycarbonyl)thiophen-2-yl]-2,2-diethylpropanoic acid trifluoroacetic acid salt], for which the values for the Ki in assay [1] and in assay [2] were 2.49 nM and 1.24 nM, respectively.

For the molecule `CCC(CC)(Cc1ccc(C(=O)Oc2ccc(C(=N)N)cc2F)s1)C(=O)N[C@@H](CC(=O)O)C(=O)O` [Compound 19], the values for the Ki in assay [1] and in assay [2] were 0.82 nM and 0.33 nM, respectively.

For the molecule `CCCN(CC(=O)O)C(=O)C(CC)(CC)Cc1ccc(C(=O)Oc2ccc(C(=N)N)cc2F)s1` [Compound 20], the results for the Ki in assay [1] and in assay [2] were 7.91 nM and 2.61 nM, respectively.
